Results: ChEMBL document CHEMBL4339230, “X-ray Crystallography Deciphers the Activity of Broad-Spectrum Boronic Acid β-Lactamase Inhibitors” (ACS Med Chem Lett, 2019)

Key:
[1] = Inhibition of bacterial OXA-24 using cephalothin as reporter substrate incubated for 300 secs by spectrophotometric assay; parameters: species or system Bacteria
[2] = Competitive inhibition of recombinant GES-5 expressed in Escherichia coli BL21(DE3) using nitrocefin substrate by spectrophotometry
[3] = Inhibition of bacterial NDM1 using cephalothin as reporter substrate incubated for 300 secs by spectrophotometric assay; parameters: species or system Bacteria
[4] = Inhibition of Klebsiella pneumoniae KPC2 using cephalothin as reporter substrate incubated for 300 secs by spectrophotometric assay
[5] = Inhibition of Pseudomonas aeruginosa AmpC expressed in Escherichia coli BL21(DE3) using cephalothin as reporter substrate incubated for 300 secs by spectrophotometric assay

Row | SMILES | Ki [1] [µM] | Ki [3] [µM] | Ki [4] [µM] | Ki [2] [µM] | Ki [5] [nM]
1 | CC(C)(C)OC(=O)Nc1cccc2cc(B(O)O)sc12 | 64 | 11 | 1.4 | 5.7 | 1400
2 | NCc1ccc2sc(B(O)O)cc2c1 | 96 | 5.5 | 4.4 | 15 | 50
3 | OB(O)c1cc2cc(CBr)ccc2s1 | 67 | 5.9 | 2.8 | 8.9 | 70
4 | O=CN(C=O)Cc1ccc2sc(B(O)O)cc2c1 | – | – | – | 24 | 40

The next lines start with results.

Row | Ki [1] [µM] | Ki [3] [µM] | Ki [4] [µM] | SMILES | Ki [2] [µM] | Ki [5] [nM]
5 | 16 | 3 | 4.9 | O=C(O)c1cccc2cc(B(O)O)sc12 | 0.16 | 420
6 | 27 | 3.2 | 3.2 | CC(C)(C)OC(=O)c1cccc2cc(B(O)O)sc12 | 17 | 1300
